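Interpolation was linear, between the two tested concentrations surrounding the appropriate level; five concentrations were tested over 48 hours in 96-well plates. TGI is the concentration that stops growth completely.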
Legend:
Test in all cases: inhibition of tumour cell growth, NCI panel, 48 h
HCC-2998 colon = test system: HCC-2998 colon
A498 renal = test system: A498 renal
MOLT-4 leukemia = test system: MOLT-4 leukemia
SR leukemia = test system: SR leukemia
SNB-19 CNS = test system: SNB-19 CNS
HCT-15 colon = test system: HCT-15 colon
LOX IMVI melanoma = test system: LOX IMVI melanoma
DU-145 prostate = test system: DU-145 prostate
HOP-62 NSCLC = test system: HOP-62 NSCLC
SF-268 CNS = test system: SF-268 CNS
MCF7 breast = test system: MCF7 breast
NCI-H522 lung = test system: NCI-H522 lung
HCT-116 colon = test system: HCT-116 colon
CAKI-1 renal = test system: CAKI-1 renal
RPMI-8226 leukemia = test system: RPMI-8226 leukemia
UO-31 renal = test system: UO-31 renal
OVCAR-5 ovarian = test system: OVCAR-5 ovarian
TK-10 renal = test system: TK-10 renal
SK-OV-3 ovarian = test system: SK-OV-3 ovarian
U251 CNS = test system: U251 CNS
HS 578T breast = test system: HS 578T breast
OVCAR-8 ovarian = test system: OVCAR-8 ovarian
HT29 colon = test system: HT29 colon
SW-620 colon = test system: SW-620 colon
NCI-H226 lung = test system: NCI-H226 lung
NCI/ADR-RES ovarian = test system: NCI/ADR-RES ovarian
RXF 393 renal = test system: RXF 393 renal
ACHN renal = test system: ACHN renal
M14 melanoma = test system: M14 melanoma
KM12 colon = test system: KM12 colon
NCI-H460 lung = test system: NCI-H460 lung
K-562 leukemia = test system: K-562 leukemia
SN12C renal = test system: SN12C renal
EKVX NSCLC = test system: EKVX NSCLC
PC-3 prostate = test system: PC-3 prostate
SF-295 CNS = test system: SF-295 CNS
T-47D breast = test system: T-47D breast
A549 NSCLC = test system: A549 NSCLC
IGROV1 ovarian = test system: IGROV1 ovarian
NCI-H23 lung = test system: NCI-H23 lung
SK-MEL-28 melanoma = test system: SK-MEL-28 melanoma
UACC-62 melanoma = test system: UACC-62 melanoma
786-0 renal = test system: 786-0 renal
MDA-N = test system: MDA-N
HOP-92 NSCLC = test system: HOP-92 NSCLC
UACC-257 melanoma = test system: UACC-257 melanoma
SK-MEL-5 melanoma = test system: SK-MEL-5 melanoma
MALME-3M melanoma = test system: MALME-3M melanoma
COLO 205 colon = test system: COLO 205 colon
CCRF-CEM leukemia = test system: CCRF-CEM leukemia
OVCAR-3 ovarian = test system: OVCAR-3 ovarian
SK-MEL-2 melanoma = test system: SK-MEL-2 melanoma
HL-60(TB) leukemia = test system: HL-60(TB) leukemia
MDA-MB-231 breast = test system: MDA-MB-231 breast
SNB-75 CNS = test system: SNB-75 CNS
MDA-MB-435 = test system: MDA-MB-435
SF-539 CNS = test system: SF-539 CNS
OVCAR-4 ovarian = test system: OVCAR-4 ovarian

## CC(=O)Oc1cc2c[n+](C)c3c4cc(OC(C)=O)c(OC(C)=O)cc4ccc3c2cc1OC(C)=O
HCC-2998 colon
  TGI: > 100 µM
A498 renal
  TGI: > 65.3 µM
MOLT-4 leukemia
  TGI: > 100 µM
SR leukemia
  TGI: > 100 µM
SNB-19 CNS
  TGI: > 100 µM
HCT-15 colon
  TGI: > 100 µM
LOX IMVI melanoma
  TGI: > 100 µM
DU-145 prostate
  TGI: > 100 µM
HOP-62 NSCLC
  TGI: > 100 µM
SF-268 CNS
  TGI: > 100 µM
MCF7 breast
  TGI: > 100 µM
NCI-H522 lung
  TGI: > 100 µM
HCT-116 colon
  TGI: > 32.5 µM
CAKI-1 renal
  TGI: > 100 µM
RPMI-8226 leukemia
  TGI: > 100 µM
UO-31 renal
  TGI: 9.46 µM
OVCAR-5 ovarian
  TGI: > 50.1 µM
TK-10 renal
  TGI: > 100 µM
SK-OV-3 ovarian
  TGI: > 100 µM
U251 CNS
  TGI: > 100 µM
HS 578T breast
  TGI: > 100 µM
OVCAR-8 ovarian
  TGI: > 100 µM
HT29 colon
  TGI: 26.2 µM
SW-620 colon
  TGI: > 100 µM
NCI-H226 lung
  TGI: > 100 µM
NCI/ADR-RES ovarian
  TGI: > 100 µM
RXF 393 renal
  TGI: 11 µM
ACHN renal
  TGI: > 100 µM
M14 melanoma
  TGI: > 48.4 µM
KM12 colon
  TGI: > 100 µM
NCI-H460 lung
  TGI: > 100 µM
K-562 leukemia
  TGI: > 100 µM
SN12C renal
  TGI: > 100 µM
EKVX NSCLC
  TGI: 73.4 µM
PC-3 prostate
  TGI: > 100 µM
SF-295 CNS
  TGI: > 57.8 µM
T-47D breast
  TGI: > 100 µM
A549 NSCLC
  TGI: > 100 µM
IGROV1 ovarian
  TGI: > 100 µM
NCI-H23 lung
  TGI: > 100 µM
SK-MEL-28 melanoma
  TGI: > 100 µM
UACC-62 melanoma
  TGI: > 100 µM
786-0 renal
  TGI: > 100 µM
MDA-N
  TGI: > 100 µM
HOP-92 NSCLC
  TGI: > 100 µM
UACC-257 melanoma
  TGI: > 100 µM
SK-MEL-5 melanoma
  TGI: > 61.4 µM
MALME-3M melanoma
  TGI: > 100 µM
COLO 205 colon
  TGI: > 100 µM

## COC(=O)[C@@H](NC1(c2ccccc2)c2ccccc2-c2ccccc21)[C@H](OC(=O)[C@H]1CCCN1S(=O)(=O)c1ccccc1)C(=O)OC
CCRF-CEM leukemia
  TGI: > 100 µM
HCC-2998 colon
  TGI: > 100 µM
A498 renal
  TGI: > 100 µM
MOLT-4 leukemia
  TGI: > 100 µM
SR leukemia
  TGI: > 100 µM
SNB-19 CNS
  TGI: > 100 µM
HCT-15 colon
  TGI: > 100 µM
LOX IMVI melanoma
  TGI: > 100 µM
DU-145 prostate
  TGI: > 100 µM
HOP-62 NSCLC
  TGI: > 100 µM
SF-268 CNS
  TGI: > 100 µM
MCF7 breast
  TGI: > 100 µM
NCI-H522 lung
  TGI: > 100 µM
HCT-116 colon
  TGI: > 100 µM
UO-31 renal
  TGI: > 100 µM
OVCAR-5 ovarian
  TGI: > 100 µM
TK-10 renal
  TGI: > 100 µM
SK-OV-3 ovarian
  TGI: > 100 µM
U251 CNS
  TGI: > 100 µM
OVCAR-8 ovarian
  TGI: > 100 µM
HT29 colon
  TGI: > 100 µM
SW-620 colon
  TGI: > 100 µM
OVCAR-3 ovarian
  TGI: > 100 µM
NCI-H226 lung
  TGI: > 100 µM
NCI/ADR-RES ovarian
  TGI: > 100 µM
RXF 393 renal
  TGI: > 100 µM
ACHN renal
  TGI: > 100 µM
M14 melanoma
  TGI: > 100 µM
SK-MEL-2 melanoma
  TGI: > 100 µM
HL-60(TB) leukemia
  TGI: > 100 µM
KM12 colon
  TGI: > 100 µM
NCI-H460 lung
  TGI: > 100 µM
K-562 leukemia
  TGI: > 100 µM
MDA-MB-231 breast
  TGI: > 100 µM
SN12C renal
  TGI: > 100 µM
EKVX NSCLC
  TGI: > 100 µM
SNB-75 CNS
  TGI: > 100 µM
PC-3 prostate
  TGI: > 100 µM
SF-295 CNS
  TGI: > 100 µM
T-47D breast
  TGI: > 100 µM
MDA-MB-435
  TGI: > 100 µM
A549 NSCLC
  TGI: > 100 µM
IGROV1 ovarian
  TGI: > 100 µM
NCI-H23 lung
  TGI: > 100 µM
SK-MEL-28 melanoma
  TGI: > 100 µM
UACC-62 melanoma
  TGI: > 100 µM
786-0 renal
  TGI: > 100 µM
SF-539 CNS
  TGI: > 100 µM
MDA-N
  TGI: > 100 µM
HOP-92 NSCLC
  TGI: 84.1 µM
UACC-257 melanoma
  TGI: > 100 µM
SK-MEL-5 melanoma
  TGI: > 100 µM
MALME-3M melanoma
  TGI: > 100 µM
OVCAR-4 ovarian
  TGI: > 100 µM
COLO 205 colon
  TGI: > 100 µM

Source: PubChem BioAssay (NCI)
